ChEMBL document CHEMBL3272293, “Use of distribution coefficients in quantitative structure-activity relationships” (J Med Chem, 1977)

Columns and labels:
physchem [1] = conditions: pH 6.8
Description: Dissociation constant, pKa of the compound at pH 6.8

physchem [2] = conditions: octanol/aqueous phase
Description: Octanol-aqueous phase partition coefficient, log P of the compound

Colon = test: Drug absorption in anesthetized rat colon at pH 6.8; format: ADME, tissue-based; conditions: in vivo
physchem [3] = conditions: octanol/aqueous phase; remark: listed apart in the source
Small intestine = test: Drug absorption in rat small intestine; format: ADME, tissue-based; conditions: in vivo
[4] = Dissociation constant, pKa of the compound at pH 5.3; format: physicochemical
physchem [5] = conditions: octanol/water
Description: (§1) Octanol-water partition coefficient, log P of the compound

physchem [6] = conditions: pH 7.8
Description: Dissociation constant, pKa of the compound at pH 7.8

Neuron = test: Increase in membrane potential in mollusc neurons assessed as conductance of potassium at pH 7.8 relative to salicylic acid; format: functional, Mollusca
physchem [7] = test: physchem
[8] = Octanol-aqueous phase […] of the compound at pH 7.10; format: physicochemical; conditions: pH 7.1
[9] = Dissociation constant, pKa of the compound by titrimetric analysis; format: physicochemical
[10] = Octanol-aqueous phase distribution coefficient, log D of the compound at pH 8; format: physicochemical
[11] = Uncoupling of oxidative phosphorylation in rat liver mitochondria at pH 6 relative to control; format: functional
[12] = Uncoupling of oxidative phosphorylation in rat liver mitochondria at pH 7 relative to control; format: functional
[13] = Uncoupling of oxidative phosphorylation in rat liver mitochondria at pH 8 relative to control; format: functional
[14] = Uncoupling of oxidative phosphorylation in rat liver mitochondria at pH 5 relative to control; format: functional
[15] = Octanol-aqueous phase distribution coefficient, log D of the compound at pH 7; format: physicochemical
[16] = Octanol-aqueous phase distribution coefficient, log D of the compound at pH 6; format: physicochemical
[17] = Octanol-aqueous phase distribution coefficient, log D of the compound at pH 5; format: physicochemical
[18] = octanol/water
[19] = octanol/water; remark: listed apart in the source
Description: as §1

## CCCC(C)C1(CC)C(=O)NC(=S)NC1=O (stereo not given) [THIOPENTAL]
Physchem [1]
  pKa: 0.8
Physchem [2]
  logP: 2.5
Colon
  log%Abs: 1.7
Physchem [3]
  logD: 2.44

## CN[C@@H](C)[C@H](O)c1ccccc1 [EPHEDRINE]
Small intestine
  log%Abs: 0.85
Colon
  log%Abs: 0.95

## Cc1ccc(N)cc1
[4]
  pKa: 0
Physchem [1]
  pKa: 1.5
Small intestine
  log%Abs: 1.77
Colon
  log%Abs: 1.71

## O=C(O)c1cc(Br)cc(Br)c1O
Physchem [5]
  logP: 4.21
Physchem [6]
  pKa: 5.54
Neuron
  fold change (FC): 1.6
Physchem [3]
  logD: -1.33
Physchem [7]
  pKa: 2.26

## Nc1ccc([N+](=O)[O-])cc1 [4-NITROANILINE]
Small intestine
  log%Abs: 1.83
Colon
  log%Abs: 1.7

## CCC(=O)c1ccc(O)cc1 [PAROXYPROPIONE]
Physchem [1]
  pKa: 1
Physchem [2]
  logP: 1.85
Colon
  log%Abs: 1.66
Physchem [3]
  logD: 1.81

## CN1CC[C@]23CCCC[C@H]2[C@H]1Cc1ccc(O)cc13 [LEVORPHANOL]
[8]
  logD: 3.02
Colon
  log%Abs: 1.11
[9]
  pKa: 3
Physchem [3]
  logD: 0.02

## O=[N+]([O-])c1ccc(O)cc1 [P-NITROPHENOL]
[10]
  logD: 0.96
[11]
  fold change (FC): 3.37
[12]
  fold change (FC): 3.51
[13]
  fold change (FC): 3.39
[14]
  fold change (FC): 3.3
Physchem [2]
  logP: 1.96
[15]
  logD: 1.66
[16]
  logD: 1.96
[17]
  logD: 1.96

## CC(=O)Nc1ccccc1 [ACETANILIDE]
[4]
  pKa: 5
Physchem [1]
  pKa: 6.5
Small intestine
  log%Abs: 1.62
Colon
  log%Abs: 1.56
Physchem [3]
  logD: 1.16

## c1ccc(CC2=NCCN2)cc1 [TOLAZOLINE]
[4]
  pKa: 5
Physchem [1]
  pKa: 3.5
Small intestine
  log%Abs: 0.78
Physchem [2]
  logP: 2.65
Colon
  log%Abs: 0.6
Physchem [3]
  logD: -2.35

## Oc1ccccc1 [PHENOL]
Colon
  log%Abs: 1.55

## O=C(O)c1cc(I)cc(I)c1O
Physchem [5]
  logP: 4.78
Physchem [6]
  pKa: 5.47
Neuron
  fold change (FC): 2
Physchem [3]
  logD: -0.69
Physchem [7]
  pKa: 2.33

## Cc1cc([N+](=O)[O-])c(O)c([N+](=O)[O-])c1C
[10]
  logD: -1.26
[11]
  fold change (FC): 4.51
[12]
  fold change (FC): 4.36
[13]
  fold change (FC): 3.95
[14]
  fold change (FC): 4.92
Physchem [2]
  logP: 2.54
[15]
  logD: -0.26
[16]
  logD: 0.74
[17]
  logD: 1.64
Physchem [7]
  pKa: 4.2

## CC(C)Cc1cc([N+](=O)[O-])c(O)c([N+](=O)[O-])c1
[10]
  logD: -0.38
[11]
  fold change (FC): 4.88
[12]
  fold change (FC): 4.71
[13]
  fold change (FC): 4.48
[14]
  fold change (FC): 5.16
Physchem [2]
  logP: 3.32
[15]
  logD: 0.62
[16]
  logD: 1.62
[17]
  logD: 2.52
Physchem [7]
  pKa: 4.3

## Cn1c(=O)c2[nH]cnc2n(C)c1=O.O [THEOPHYLLINE]
Small intestine
  log%Abs: 1.46
Physchem [2]
  logP: -0.78
Physchem [3]
  logD: -0.78

## O=C(O)c1cccc(Cl)c1
Physchem [5]
  logP: 2.68
[18]
  logD: -1.3
Physchem [6]
  pKa: 3.98
Neuron
  fold change (FC): 0.18

## O=C(O)c1c(O)cccc1O
Physchem [5]
  logP: 2.2
Physchem [6]
  pKa: 5.1
Neuron
  fold change (FC): 0.18
Physchem [3]
  logD: -2.9
Physchem [7]
  pKa: 2.7

## O=C(O)c1cc(Cl)cc(Cl)c1O
[19]
  logP: 3.88
Physchem [6]
  pKa: 5.5
Neuron
  fold change (FC): 1.48
Physchem [3]
  logD: -1.62
Physchem [7]
  pKa: 2.3

## O=C(O)c1ccc([N+](=O)[O-])cc1 [4-NITROBENZOIC ACID]
Physchem [5]
  logP: 1.89
[18]
  logD: -2.5
Physchem [6]
  pKa: 4.39
Neuron
  fold change (FC): -0.52
Physchem [7]
  pKa: 3.41

## O=C(O)c1cccc(Br)c1
Physchem [5]
  logP: 2.84
[18]
  logD: -1.1
Physchem [6]
  pKa: 3.94
Neuron
  fold change (FC): 0.48

## O=C(O)c1cc(O)ccc1O [GENTISIC ACID]
Physchem [6]
  pKa: 4.83
Neuron
  fold change (FC): -0.7

## O=C(O)c1cccc(O)c1 [3-HYDROXYBENZOIC ACID]
Physchem [5]
  logP: 1.5
[18]
  logD: -2.24
Physchem [6]
  pKa: 3.74
Neuron
  fold change (FC): -1

## O=[N+]([O-])c1ccccc1O [NITROPHENOLATE]
Physchem [1]
  pKa: 0.2
Physchem [2]
  logP: 1.79
Colon
  log%Abs: 1.74
Physchem [3]
  logD: 1.58

## O=C(O)c1ccccc1 [BENZOIC ACID]
Colon
  log%Abs: 1.28

## Nc1cccc([N+](=O)[O-])c1 [3-NITROANILINE]
[4]
  pKa: 2.8
Physchem [1]
  pKa: 4.3
Small intestine
  log%Abs: 1.89
Physchem [2]
  logP: 1.37
Colon
  log%Abs: 1.68
Physchem [3]
  logD: 1.37

## O=C(O)c1ccc(Br)cc1
Physchem [5]
  logP: 2.86
[18]
  logD: -0.96
Physchem [6]
  pKa: 3.82
Neuron
  fold change (FC): 0.4
Physchem [7]
  pKa: 3.98

## O=C(O)c1ccc(Cl)c(Cl)c1
Physchem [5]
  logP: 3.46
[18]
  logD: -0.68
Physchem [6]
  pKa: 4.14
Neuron
  fold change (FC): 0.93
Physchem [7]
  pKa: 3.66

## O=C(O)c1ccc(O)cc1O [2,4-DIHYDROXYBENZOIC ACID]
Physchem [5]
  logP: 1.6
Neuron
  fold change (FC): -1
Physchem [3]
  logD: -1.5
Physchem [7]
  pKa: 4.7

## O=C(O)c1cc(Cl)ccc1O [5-CHLOROSALICYLIC ACID]
Physchem [5]
  logP: 3.02
Physchem [6]
  pKa: 5.17
Neuron
  fold change (FC): 1
Physchem [3]
  logD: -2.15
Physchem [7]
  pKa: 2.63

## O=C(O)c1ccccc1O [SALICYLIC ACID]
Physchem [5]
  logP: 2.21
[18]
  logD: -2.62
Colon
  log%Abs: 1.08

## O=C(O)c1cc([N+](=O)[O-])cc([N+](=O)[O-])c1O [3,5-DINITROSALICYLIC ACID]
Physchem [5]
  logP: 2.21
[18]
  logD: -4.04
Physchem [6]
  pKa: 6.25
Neuron
  fold change (FC): 0
Physchem [7]
  pKa: 1.55

## Nc1ccccc1 [ANILINE]
Small intestine
  log%Abs: 1.73
Colon
  log%Abs: 1.64
Physchem [3]
  logD: 0.82

## O=C(O)c1cccc(I)c1
Physchem [5]
  logP: 3.13
[18]
  logD: -0.67
Neuron
  fold change (FC): 0.6
Physchem [7]
  pKa: 4

## Cc1c(N(C)C)c(=O)n(-c2ccccc2)n1C [AMINOPYRINE]
[4]
  pKa: 0.3
Physchem [1]
  pKa: 1.8
Small intestine
  log%Abs: 1.52
Colon
  log%Abs: 1.32

## Cc1ccc(C(=O)O)cc1 [4-METHYLBENZOIC ACID]
[18]
  logD: -2.09
Physchem [6]
  pKa: 3.44

## O=C(O)c1ccc(I)cc1
Physchem [5]
  logP: 3.02
[18]
  logD: -0.87
Physchem [6]
  pKa: 3.89
Neuron
  fold change (FC): 0.54
Physchem [7]
  pKa: 3.91

## O=C(O)c1cc(Br)ccc1O
Physchem [5]
  logP: 3.21
Physchem [6]
  pKa: 5.18
Neuron
  fold change (FC): 1.23
Physchem [3]
  logD: -1.97
Physchem [7]
  pKa: 2.62

## O=C(O)c1cccc([N+](=O)[O-])c1
Physchem [1]
  pKa: 3.4
Physchem [5]
  logP: 1.83
[18]
  logD: -2.5
Physchem [2]
  logP: 1.83
Colon
  log%Abs: 1
Physchem [6]
  pKa: 4.33
Neuron
  fold change (FC): -0.7
Physchem [7]
  pKa: 3.47

## O=C(O)c1cc(I)ccc1O
Physchem [5]
  logP: 3.52
Physchem [6]
  pKa: 5.15
Neuron
  fold change (FC): 1.43
Physchem [3]
  logD: -1.63
Physchem [7]
  pKa: 2.65

## O=[N+]([O-])c1cccc(O)c1 [3-NITRO-PHENOL]
Physchem [1]
  pKa: 1.4
Physchem [2]
  logP: 2
Colon
  log%Abs: 1.64
Physchem [3]
  logD: 2

## O=C(O)c1cc([N+](=O)[O-])ccc1O
Physchem [1]
  pKa: 4.5
Physchem [5]
  logP: 2.21
Physchem [2]
  logP: 1.98
Colon
  log%Abs: 0.3
Physchem [6]
  pKa: 5.48
Neuron
  fold change (FC): 0
Physchem [3]
  logD: -3.27
Physchem [7]
  pKa: 2.32

## CC(C)CCCCCc1cc([N+](=O)[O-])c(O)c([N+](=O)[O-])c1
[10]
  logD: 1.42
[11]
  fold change (FC): 5.89
[12]
  fold change (FC): 5.64
[13]
  fold change (FC): 5.41
[14]
  fold change (FC): 6.08
Physchem [2]
  logP: 5.32
[15]
  logD: 2.42
[16]
  logD: 3.42
[17]
  logD: 4.32
Physchem [7]
  pKa: 4.1

## C=C[C@H]1C[N@@]2CC[C@H]1C[C@H]2[C@H](O)c1ccnc2ccc(OC)cc12 [QUININE]
Small intestine
  log%Abs: 1.18
Colon
  log%Abs: 1.3

## CCCCC1C(=O)N(c2ccccc2)N(c2ccccc2)C1=O [PHENYLBUTAZONE]
Colon
  log%Abs: 1.58

## O=C(O)c1ccccc1Cl
Physchem [5]
  logP: 1.98
[18]
  logD: -2.9
Physchem [6]
  pKa: 4.88
Neuron
  fold change (FC): -0.7

## Cc1cc(=O)n(-c2ccccc2)n1C [ANTIPYRINE]
[4]
  pKa: 3.9
Physchem [1]
  pKa: 5.4
Small intestine
  log%Abs: 1.51
Colon
  log%Abs: 1.3

## COc1ccc(O)c(C(=O)O)c1
Physchem [5]
  logP: 2.41
Physchem [6]
  pKa: 4.94
Neuron
  fold change (FC): 0.18
Physchem [3]
  logD: -2.53
Physchem [7]
  pKa: 2.86

## CC(C)CCc1cc([N+](=O)[O-])c(O)c([N+](=O)[O-])c1
[10]
  logD: -0.08
[11]
  fold change (FC): 5.42
[12]
  fold change (FC): 5.18
[13]
  fold change (FC): 4.92
[14]
  fold change (FC): 5.5
Physchem [2]
  logP: 3.82
[15]
  logD: 0.92
[16]
  logD: 1.92
[17]
  logD: 2.82
Physchem [7]
  pKa: 4.1
